# Source: ChEMBL document CHEMBL1201862, “PubChem BioAssay data set” (2004)
# Activity calls are given as the source filed them. Cut-off read from the data, not from the text of the source: actives have a measured IC50 and inactives only a lower limit.
# Target: Envelope glycoprotein gp160 (Human immunodeficiency virus 1, UniProt Q6QLK5)
# Assay: inhibitors of HIV fusion peptide binding, primary screen, biochemical, uHTS, fluorescence dequenching (AID 1986)
# Chain of Envelope glycoprotein gp160 (Q6QLK5 whole entry, the tested form may be a part): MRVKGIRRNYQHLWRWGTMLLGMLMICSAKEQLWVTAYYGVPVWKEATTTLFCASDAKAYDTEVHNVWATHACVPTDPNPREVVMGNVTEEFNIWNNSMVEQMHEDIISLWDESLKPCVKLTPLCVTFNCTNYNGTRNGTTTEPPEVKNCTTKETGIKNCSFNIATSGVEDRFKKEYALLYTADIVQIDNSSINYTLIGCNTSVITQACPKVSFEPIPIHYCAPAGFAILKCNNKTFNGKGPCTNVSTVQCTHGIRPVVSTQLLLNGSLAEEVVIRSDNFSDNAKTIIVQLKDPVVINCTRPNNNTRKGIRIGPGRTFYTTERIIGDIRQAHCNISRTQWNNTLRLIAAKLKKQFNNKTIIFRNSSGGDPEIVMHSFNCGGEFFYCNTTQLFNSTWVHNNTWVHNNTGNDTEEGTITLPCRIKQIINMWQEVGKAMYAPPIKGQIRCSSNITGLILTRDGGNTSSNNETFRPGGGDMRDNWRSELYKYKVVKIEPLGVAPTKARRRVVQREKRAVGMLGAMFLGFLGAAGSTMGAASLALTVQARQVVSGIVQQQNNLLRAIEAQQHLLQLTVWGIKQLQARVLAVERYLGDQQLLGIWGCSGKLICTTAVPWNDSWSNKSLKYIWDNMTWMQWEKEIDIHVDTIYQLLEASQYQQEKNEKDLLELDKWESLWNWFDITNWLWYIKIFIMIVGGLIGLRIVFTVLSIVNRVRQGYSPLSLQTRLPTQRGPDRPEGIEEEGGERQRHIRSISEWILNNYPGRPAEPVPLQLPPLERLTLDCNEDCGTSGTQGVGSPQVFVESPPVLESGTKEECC
row,Compound,IC50
1,CCOc1cc(/C=C2/C(=N)N3C(=NC2=O)SN=C3S(C)(=O)=O)ccc1OS(=O)(=O)c1ccccc1,12.2 µM (active)
2,O=C(O)c1cc(-c2ccc(/C=C3\NC(=O)N(c4ccc(Cl)cc4)C3=O)o2)ccc1Cl,22.6 µM (active)
3,O=C1NC(=S)N(c2ccc(F)cc2)C(=O)/C1=C\c1ccoc1,5.78 µM (active)
4,Cc1cc(N2C(=O)C(O)=C(C(=O)c3cc4ccccc4o3)C2c2cccc(Br)c2)no1 (stereo not given),16.4 µM (active)
5,O=c1cc(-c2ccccc2Cl)oc2c(NS(=O)(=O)c3cc(Cl)cc(Cl)c3O)ccc(O)c12,9.18 µM (active)
